In this test the test system is passive cutaneous anaphylactic (PCA) reaction. Nature of the test: Passive cutaneous anaphylactic (PCA) reaction, reagin-allergen combination, in rats. It is filed as in vivo. To be noted: Rattus norvegicus; for ED100: intravenous, just before injection of allergen, read-out: ED100 (intravenous dose which produces 100% inhibition of the PCA reaction); for inhibition in vivo at 100 mg/kg: oral dose of 100 mg/kg; for inhibition in vivo at 100 mg/kg / ED50: thirty minutes before intravenous allergen; for ED50: oral, read-out: ED50 (oral dose which produces 50% inhibition of the PCA reaction). The text has this: In pharmacological tests the benzamide derivatives of general formula I suppress the passive cutaneous anaphylactic (PCA) reaction resulting from combination of tissue-fixed reaginic antibodies with the appropriate antigenic material (termed reagin-allergen combination) and carried out in an essentially similar manner to that described by Ogilvie [Nature (Lond.), (1964), 204, 91-92; Immunology, (1967), 12, 112-131]. In the method used to test these compounds sera were obtained from rats which had been infected with larvae of the nematode parasite Nippostrongylus brasiliensis; as a result of the parasitic infestation reaginic antibodies are elaborated in the host mammal and are found in sera removed from such animals. Other, non-infected, rats received intradermal injections of appropriate dilutions of such sera and were then given the allergenic material along with Evans' blue dye intravenously forty-eight hours later.
The allergenic material consisted of supernatant fluid after centrifugation of homogenates of adult Nippostrongylus brasiliensis worms which had been macerated in Tyrode's solution. The sites of PCA reactions were visualised by the effusion of Evan's blue dye from the circulation into those areas as a result of increased capillary permeability caused by the release of biologically-active substances from cells where reagin-allergen combination had occurred. The new compounds when given intravenously to the rats just before injection of allergen, or administered orally thirty minutes before intravenous injection of allergen, were able to prevent the development of the PCA reaction, as shown below in Table I, Table II and Table III.

As to `CN(C)S(=O)(=O)c1ccc(O)c(C(=O)Nc2nnn[nH]2)c1` [AB, 2-hydroxy-5-(N,N-dimethylsulphamoyl)-N-(tetrazol-5-yl)benzamide], the ED100 came to 2 mg/kg.

As for `CC(C)N(C)S(=O)(=O)c1ccc(O)c(C(=O)Nc2nnn[nH]2)c1` [AC, 2-hydroxy-5-(N-methyl-N-isopropylsulphamoyl)-N-(tetrazol-5-yl)benzamide], the ED100 is 5 mg/kg and the inhibition in vivo at 100 mg/kg came out at 20%.

Regarding `O=C(Nc1nnn[nH]1)c1cc(O)ccc1O` [AF, 2,5-dihydroxy-N-(tetrazol-5-yl)benzamide], the ED100 was 1 mg/kg.

Turning to `O=C(Nc1nnn[nH]1)c1ccc(O)cc1O` [AJ, 2,4-dihydroxy-N-(tetrazol-5-yl)benzamide], the ED100 was 10 mg/kg and the inhibition in vivo at 100 mg/kg turned out to be 38%.

Take `Cc1ccc(C(=O)Nc2nnn[nH]2)c(O)c1` [AK, 2-hydroxy-4-methyl-N-(tetrazol-5-yl)benzamide]: the ED100 amounted to 10 mg/kg and the inhibition in vivo at 100 mg/kg was 32%.

For the compound `O=C(Nc1nnn[nH]1)c1cccc(Cl)c1O` [AM, 3-chloro-2-hydroxy-N-(tetrazol-5-yl)benzamide], the ED100 stood at 5 mg/kg, the inhibition in vivo at 100 mg/kg worked out at 82% and the median effective dose (ED50) was 85 mg/kg.

Turning to `COc1ccc(C(=O)Nc2nnn[nH]2)c(O)c1` [AT, 2-hydroxy-4-methoxy-N-(tetrazol-5-yl)benzamide], the ED100 worked out at 5 mg/kg and the inhibition in vivo at 100 mg/kg turned out to be 8%.

In the case of `O=C(Nc1nnn[nH]1)c1cc(Br)cc(Br)c1O` [AY, 3,5-dibromo-2-hydroxy-N-(tetrazol-5-yl)benzamide], the ED100 was found to be 5 mg/kg and the inhibition in vivo at 100 mg/kg was 65%.

As to `CC(=O)Nc1ccc(O)c(C(=O)Nc2nnn[nH]2)c1` [AZ, 5-acetylamino-2-hydroxy-N-(tetrazol-5-yl)benzamide], the ED100 was 10 mg/kg.

For the compound `O=C(Nc1nnn[nH]1)c1ccc(F)cc1O` [BD, 4-fluoro-2-hydroxy-N-(tetrazol-5-yl)benzamide], the ED100 is 10 mg/kg and the inhibition in vivo at 100 mg/kg turned out to be 75%.

With `CSc1ccc(O)c(C(=O)Nc2nnn[nH]2)c1` [BF, 2-hydroxy-5-methylthio-N-(tetrazol-5-yl)benzamide], the ED100 was determined as 0.5 mg/kg.

As for `CS(=O)(=O)c1cccc(C(=O)Nc2nnn[nH]2)c1O` [BJ, 2-hydroxy-3-methylsulphonyl-N-(tetrazol-5-yl)benzamide], the ED100 was 20 mg/kg and the inhibition in vivo at 100 mg/kg amounted to 64%.

As to `CS(=O)(=O)c1cc(C(=O)Nc2nnn[nH]2)c(O)c(S(C)(=O)=O)c1` [BK, 2-hydroxy-3,5-bis(methylsulphonyl)-N-(tetrazol-5-yl)benzamide], the ED100 is 10 mg/kg and the inhibition in vivo at 100 mg/kg is 29%.

In the case of `O=Cc1ccc(O)c(C(=O)Nc2nnn[nH]2)c1` [BL, 5-formyl-2-hydroxy-N-(tetrazol-5-yl)benzamide], the ED100 was 0.5 mg/kg and the inhibition in vivo at 100 mg/kg was 25%.

`O=C(Nc1nnn[nH]1)c1cc(Br)ccc1O` [BM, 5-bromo-2-hydroxy-N-(tetrazol-5-yl)benzamide]: the ED100 is 5 mg/kg, the inhibition in vivo at 100 mg/kg was found to be 46% and the median effective dose (ED50) is 65 mg/kg.

As to `CSc1ccc(C(=O)Nc2nnn[nH]2)c(O)c1` [BN, 2-hydroxy-4-methylthio-N-(tetrazol-5-yl)benzamide], the ED100 came to 10 mg/kg and the inhibition in vivo at 100 mg/kg was determined as 8%.

As for `CS(=O)(=O)c1ccc(O)c(C(=O)Nc2nnn[nH]2)c1` [BO, 2-hydroxy-5-methylsulphonyl-N-(tetrazol-5-yl)benzamide], the ED100 was 5 mg/kg and the inhibition in vivo at 100 mg/kg came to 63%.

In the case of `O=C(Nc1ccc(O)c(C(=O)Nc2nnn[nH]2)c1)OCc1ccccc1` [BQ, 5-benzyloxycarbonylamino-2-hydroxy-N-(tetrazol-5-yl)benzamide], the ED100 worked out at 5 mg/kg.

`O=C(Nc1ccc(C(=O)Nc2nnn[nH]2)c(O)c1)OCc1ccccc1` [BR, 4-benzyloxycarbonylamino-2-hydroxy-N-(tetrazol-5-yl)benzamide]: the ED100 is 0.5 mg/kg.

Take `CC(=O)c1cc(Br)cc(C(=O)Nc2nnn[nH]2)c1O` [CB, 3-acetyl-5-bromo-2-hydroxy-N-(tetrazol-5-yl)benzamide]: the ED100 is 2 mg/kg, the inhibition in vivo at 100 mg/kg is 66% and the ED50 was 64 mg/kg.

Turning to `CC(=O)c1cc(F)cc(C(=O)Nc2nnn[nH]2)c1O` [CC, 3-acetyl-5-fluoro-2-hydroxy-N-(tetrazol-5-yl)benzamide], the ED100 was 0.2 mg/kg, the inhibition in vivo at 100 mg/kg turned out to be 62% and the ED50 worked out at 1.9 mg/kg.

`O=Cc1cccc(C(=O)Nc2nnn[nH]2)c1O` [CH, 3-formyl-2-hydroxy-N-(tetrazol-5-yl)benzamide]: the ED100 was determined as 0.5 mg/kg, the inhibition in vivo at 100 mg/kg was found to be 75% and the ED50 came out at 5.3 mg/kg.

For the compound `Cc1cc(C=O)c(O)c(C(=O)Nc2nnn[nH]2)c1` [CI, 3-formyl-2-hydroxy-5-methyl-N-(tetrazol-5-yl)benzamide], the ED100 was 2 mg/kg, the inhibition in vivo at 100 mg/kg amounted to 70% and the ED50 was determined as 5.4 mg/kg.

`N#Cc1ccc(O)c(C(=O)Nc2nnn[nH]2)c1` [CK, 5-cyano-2-hydroxy-N-(tetrazol-5-yl)benzamide]: the ED100 turned out to be 0.2 mg/kg, the inhibition in vivo at 100 mg/kg was determined as 89% and the ED50 amounted to 50 mg/kg.

With `Cc1cc(C(=O)Nc2nnn[nH]2)c(O)c(-c2nnn[nH]2)c1` [CM, 2-hydroxy-5-methyl-3,N-bis(tetrazol-5-yl)benzamide], the ED100 turned out to be 0.05 mg/kg and the inhibition in vivo at 100 mg/kg came out at 64%.

In the case of `O=C(O)c1cccc(C(=O)Nc2nn[nH]n2)c1O` [CN, 3-N-(tetrazol-5-yl)carbamoylsalicylic acid], the ED100 stood at 1 mg/kg, the inhibition in vivo at 100 mg/kg is 43% and the ED50 amounted to 20 mg/kg.

`CC(C)(C)NC(=O)c1cccc(C(=O)Nc2nnn[nH]2)c1O` [CO, 3-tert-butylcarbamoyl-2-hydroxy-N-(tetrazol-5-yl)benzamide]: the ED100 turned out to be 5 mg/kg and the inhibition in vivo at 100 mg/kg was found to be 26%.

As to `CN(C)c1cccc(C(=O)Nc2nnn[nH]2)c1O` [CP, 2-hydroxy-3-dimethylamino-N-(tetrazol-5-yl)benzamide], the ED100 was 2 mg/kg, the inhibition in vivo at 100 mg/kg came to 68% and the ED50 came to 26 mg/kg.

In the case of `O=C(Nc1nnn[nH]1)c1ccc([N+](=O)[O-])cc1O` [Compound AA, 2-hydroxy-4-nitro-N-(tetrazol-5-yl)benzamide], the ED100 is 10 mg/kg and the inhibition in vivo at 100 mg/kg was 18%.

As for `Nc1ccc(O)c(C(=O)Nc2nnn[nH]2)c1` [Compound BS, 5-amino-2-hydroxy-N-(tetrazol-5-yl)benzamide], the ED100 worked out at 5 mg/kg and the inhibition in vivo at 100 mg/kg was determined as 35%.

In the case of `CC(=O)c1cc(S(N)(=O)=O)cc(C(=O)Nc2nnn[nH]2)c1O` [Compound BU, 3-acetyl-2-hydroxy-5-sulphamoyl-N-(tetrazol-5-yl)benzamide], the ED100 was 0.5 mg/kg and the inhibition in vivo at 100 mg/kg is 86%.

On to `O=C(Nc1nnn[nH]1)c1cc(C(F)(F)F)ccc1O` [Compound BV, 5-trifluoromethyl-2-hydroxy-N-(tetrazol-5-yl)benzamide], for which the ED100 worked out at 2 mg/kg, the inhibition in vivo at 100 mg/kg was determined as 90% and the median effective dose (ED50) was 37 mg/kg.

The values above are taken from patent US4146631A, “Benzamide derivatives” (May & Baker Limited, priority 1976, dated 1979).
